Assay results taken from patent US6472416B1, “Sulfonylphenylpyrazole compounds useful as COX-2 inhibitors” (Abbott Laboratories, priority 1999, dated 2002).

What was measured:
[1] = tested on: IL-1β induced PGE2 production in human amnionic WISH cells; assay: IL-1β Induced PGE2 Production in WISH Cells; format: cell-based; settings: IL-1β 18 hour
Protocol: (§1) EIA reagents for prostaglandin determination were purchased from Perseptive Diagnostics, (Cambridge, Mass.). Prostaglandin E2 (PGE2) levels in lavage fluids were determined after the samples were dried under nitrogen and reconstituted with assay buffer. PGE2 levels in enzyme assays or cell culture media were measured against standards prepared in the same milieu. The immunoassays were conducted as recommended by the manufacturer. The EIA was conducted in 96 well microtiter plates (Nunc Roskilde, Denmark) and optical density was measured using a microplate reader (Vmax, Molecular Devices Corp., Menlo Park, Calif.).
Human amnionic WISH cells were grown to 80% confluence in 48 well plates. Following removal of the growth medium and two washings with Gey's Balanced Salt Solution, 5 ng IL-1β/ml (UBI, Lake Placid, N.Y.) was added to the cells with or without test compound in DMSO (0.01% v/v) in Neuman-Tytell Serumless Medium (GIBCO, Grand Island, N.Y.). Following an 18 hour incubation to allow for the maximal induction of PGHS-2, the conditioned medium was removed and assayed for PGE2 content by EIA anylysis as described above.
WISH cell values indicate percent inhibition at the particular dose level.

[2] = molecular target: T1, recombinant human Cox-2 (r-hu Cox-2, PGHS-2) (Homo sapiens, UniProt P35354); assay: Recombinant human PGHS-2 (r-hu Cox-2) enzyme assay, PGE2 by EIA; format: biochemical; settings: for IC50: read-out: r-hu COX2 IC50 (parenthetical values)
T1 construct: made in house; host or cells: baculovirus/Sf9 insect cells (microsomes)
T1 sequence (P35354 18-604): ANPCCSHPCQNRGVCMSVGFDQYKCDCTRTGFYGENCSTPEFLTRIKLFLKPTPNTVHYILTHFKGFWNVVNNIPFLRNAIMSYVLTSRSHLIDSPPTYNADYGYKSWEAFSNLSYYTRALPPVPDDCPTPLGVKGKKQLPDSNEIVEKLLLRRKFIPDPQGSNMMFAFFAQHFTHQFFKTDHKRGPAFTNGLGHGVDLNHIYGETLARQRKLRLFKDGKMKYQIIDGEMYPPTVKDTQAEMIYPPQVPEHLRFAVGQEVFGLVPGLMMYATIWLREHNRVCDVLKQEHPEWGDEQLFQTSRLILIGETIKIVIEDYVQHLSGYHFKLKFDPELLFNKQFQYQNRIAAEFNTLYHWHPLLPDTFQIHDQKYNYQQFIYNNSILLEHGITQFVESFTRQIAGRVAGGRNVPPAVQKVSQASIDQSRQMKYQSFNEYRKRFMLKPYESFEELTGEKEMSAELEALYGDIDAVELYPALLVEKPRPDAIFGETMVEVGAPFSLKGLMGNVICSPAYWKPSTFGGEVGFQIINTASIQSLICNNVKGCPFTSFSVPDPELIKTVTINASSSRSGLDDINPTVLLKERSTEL
Protocol: (§2) To compare the mean responses of the treatment groups, analysis of variance was applied. Percent inhibition values were determined by comparing the individual treatment mean values to the mean of the control group. Linear regression was used to estimate IC50's/ED50's in appropriate assays.
as §1
(§3) Inhibition of prostaglandin biosynthesis in vitro was evaluated using recombinant human Cox-1 (r-hu Cox-1) and Cox-2 (r-hu Cox-2) enzyme assays. […] The reaction was allowed to run for 2.5 minutes at room temperature prior to quenching with HCl and neutralization with NaOH. PGE2 production in the presence and absence of the drug was determined by EIA analysis. The EIA was conducted in 96 well microtiter plates (Nunc Roskilde, Denmark) and optical density was measured using a microplate reader (Vmax, Molecular Devices Corp., Menlo Park, Calif.). EIA reagent for prostaglandin determination were purchased from Perseptive Diagnostics (Cambridge, Mass.). PGE2 levels were measured against standards prepared in the same milieu. The immunoassays were conducted as recommended by the manufacturer.
(§4) The compounds are designated by the Example Number. […] Values for Cox-2 inhibition that are parenthetical indicate IC50 values.

[3] = molecular target: T2, recombinant human Cox-1 (r-hu Cox-1, PGHS-1) (Homo sapiens, UniProt P23219); assay: Recombinant human PGHS-1 (r-hu Cox-1) enzyme assay, PGE2 by EIA; format: biochemical
T2 construct: made in house; host or cells: baculovirus/Sf9 insect cells (microsomes)
Protocol: as §2, §1, §3, §4

[4] = at 100 nM, read-out: r-hu COX2 percent inhibition
[5] = at 100 μM, read-out: r-hu COX1 percent inhibition

T2 sequence (P23219 24-599): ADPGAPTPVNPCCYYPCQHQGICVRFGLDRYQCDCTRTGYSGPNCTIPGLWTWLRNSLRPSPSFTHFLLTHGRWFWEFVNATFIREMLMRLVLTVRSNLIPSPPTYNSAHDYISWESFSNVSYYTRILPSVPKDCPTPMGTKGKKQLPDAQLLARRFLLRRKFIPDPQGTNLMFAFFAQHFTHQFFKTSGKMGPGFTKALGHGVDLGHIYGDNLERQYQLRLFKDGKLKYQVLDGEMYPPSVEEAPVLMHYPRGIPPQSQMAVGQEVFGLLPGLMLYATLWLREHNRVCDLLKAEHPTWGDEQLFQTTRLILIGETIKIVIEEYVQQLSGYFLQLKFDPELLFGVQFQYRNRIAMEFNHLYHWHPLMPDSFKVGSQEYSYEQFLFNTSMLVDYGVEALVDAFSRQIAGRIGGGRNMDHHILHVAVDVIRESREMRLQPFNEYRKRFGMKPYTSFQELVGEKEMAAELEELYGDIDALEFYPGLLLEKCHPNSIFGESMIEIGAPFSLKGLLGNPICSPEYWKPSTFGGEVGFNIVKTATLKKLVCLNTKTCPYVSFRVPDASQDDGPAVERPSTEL

Molecule: 1-(4-Fluorophenyl)-2-{[4-(4-fluorophenyl)-1-methyl-5-(4-(methylsulphonyl)phenyl)-1H-pyrazol-3-yl]oxy}ethan-1-one and; 1-(4-Fluorophenyl)-2-{[4-(4-fluorophenyl)-1-methyl-3-(4-(methylsulphonyl)phenyl)-1H-pyrazol-5-yl]oxy}ethan-1-one [Example 35]
- WISH percent inhibition ([1]; at 0.01 (nM)): 38 @ 0.01%
- WISH percent inhibition ([1]; at 0.1 (nM)): 95 @ 0.1%

Molecule: CS(=O)(=O)c1ccc(-c2nn3c(c2-c2ccc(F)cc2)OCC=CC3)cc1 [Example 4, 3-(4-Fluorophenyl)-2-(4-methylsulponylphenyl)-5,8-dihydropyrazolo[5,1-b][1,3]oxazepine]
- r-hu COX2 percent inhibition ([2]; at 10000 nM): 62 @ 10000%
- r-hu COX1 percent inhibition ([3]; at 100 μM): 12 @ 100%

Molecule: CS(=O)(=O)c1ccc(-c2nn3c(c2-c2ccc(F)cc2)Oc2ccccc2C3)cc1 [Example 6, 3-(4-Fluorophenyl)-2-(4-(methylsulphonyl)phenyl)-5H-pyrazolo[1,5-b][1,3]-benzoxazine]
- r-hu COX2 percent inhibition ([2]; at 100 nM): 82 @ 100%
- r-hu COX1 percent inhibition ([3]; at 100 μM): 25 @ 100%

Molecule: CS(=O)(=O)c1ccc(-c2c(-c3ccc(F)cc3)c(OCc3ccccc3)nn2Cc2ccccc2)cc1 [Example 7, 4-(4-Fluorophenyl)-5-(4-(methylsulphonyl)phenyl)-3-benzyloxy-1-benzyl-1H-pyrazole]
- inhibition at 0.1 µM [2, 4]: 42%
- inhibition at 100 µM [3, 5]: 26%
- melting point: 174 to 175 °C

Molecule: CS(=O)(=O)c1ccc(-c2c(-c3ccc(F)cc3)c(OCc3ccc(F)cc3)nn2Cc2ccc(F)cc2)cc1 [Example 8, 4-(4-fluorophenyl)-5-(4-(methylsulphonyl)phenyl)-1-(4-fluorobenzyl)-3-((4-fluorobenzyl)oxy)-1H-pyrazole]
- inhibition at 10 µM ([2]; at 10000 nM, read-out: r-hu COX2 percent inhibition): 48%
- inhibition at 100 µM [3, 5]: 29%

Molecule: C=CCOc1nn(CC=C)c(-c2ccc(S(C)(=O)=O)cc2)c1-c1ccc(F)cc1 [Example 9, 1-allyl-3-(allyloxy)-4-(4-fluorophenyl)-5-(4-(methylsulphonyl)phenyl)-1H-pyrazole]
- inhibition at 1 µM ([2]; at 1000 nM, read-out: r-hu COX2 percent inhibition): 62%
- inhibition at 100 µM [3, 5]: 36%

Molecule: C=CCn1nc(Oc2ccccc2)c(-c2ccc(F)cc2)c1-c1ccc(S(C)(=O)=O)cc1 [Example 14, 1-Allyl-4-Fluorophenyl-5-(4-(methylsulphonyl)phenyl)-3-phenoxy-1H-pyrazole]
- r-hu COX2 percent inhibition ([2]; at 10000 nM): 37 @ 10000%
- r-hu COX1 percent inhibition ([3]; at 100 μM): 45 @ 100%

Molecule: CS(=O)(=O)c1ccc(-c2[nH]nc(OC3CCCCC3=O)c2-c2ccc(F)cc2)cc1 (stereo not shown) [Example 15, 2-{[4-(4-Fluorophenyl)-5-(4-methylsulphonylpheny)-1H-pyrazol-3-yl]oxy}cyclohexanone]
- r-hu COX2 percent inhibition ([2]; at 100 nM): 47 @ 100%
- r-hu COX1 percent inhibition ([3]; at 10 μM): 69 @ 10%

Molecule: CCn1nc(OCC(=O)c2ccc(F)cc2)c(-c2ccc(F)cc2)c1-c1ccc(OC)cc1 [Example 18, 2-{[1-Ethyl-5-(4-methoxyphenyl)-4-(4-fluorophenyl)-1H-pyrazol-3-yl]oxy}-1-(4-fluorophenyl)ethan-1-one]
- inhibition at 0.1 µM [2, 4]: 50%
- inhibition at 100 µM [3, 5]: 7%
- melting point: 170 to 171 °C

Molecule: CS(=O)(=O)c1ccc(-c2c(-c3ccc(F)cc3)c(OCC(=O)c3cccs3)nn2CC(=O)c2cccs2)cc1 [Example 20A, 2-{4-(4-Fluorophenyl)-5-(4-(methylsulphonyl)phenyl)-3-[2-(2-thienyl)-2-oxoethoxy]-1H-pyrazol-1-yl}-1-(2-thienyl)ethan-1-one]
- inhibition at 0.1 µM [2, 4]: 38%
- inhibition at 10 µM ([3]; at 10 μM, read-out: r-hu COX1 percent inhibition): 81%
- melting point: 136 to 138 °C

Molecule: CCn1nc(OCC(=O)c2cccs2)c(-c2ccc(F)cc2)c1-c1ccc(S(C)(=O)=O)cc1 [Example 21, 2-[(1-Ethyl-4-(4-fluorophenyl)-5-(4-(methylsulphonyl)phenyl)-1H-pyrazol-3-yl)oxy]-1-(2-thienyl)ethan-1-one]
- IC50 [2]: 31 nM
- inhibition at 100 µM [3, 5]: 3%
- melting point: 163 to 164 °C

Molecule: C=CCn1nc(OCC(=O)c2cccs2)c(-c2ccc(F)cc2)c1-c1ccc(S(C)(=O)=O)cc1 [Example 22, 2-[(1-Allyl-4-(4-fluorophenyl)-5-(4-(methylsulphonyl)phenyl)-1H-pyrazol-3-yl)oxy]-1-(2-thienyl)ethan-1-one]
- IC50 [2]: 60 nM
- inhibition at 100 µM [3, 5]: 0%
- melting point: 146 to 148 °C

Molecule: CCn1nc(OC2CSCCC2=O)c(-c2ccc(F)cc2)c1-c1ccc(S(C)(=O)=O)cc1 (stereo not shown) [Example 24, 3-[(1-Ethyl-4-(4-fluorophenyl)-5-(4-(methylsulphonyl)phenyl)-1H-pyrazol-3-yl)oxy]tetrahydro-4H-thiopyran-4-one]
- inhibition at 0.1 µM [2, 4]: 37%
- inhibition at 100 µM [3, 5]: 20%
- melting point: 210 to 211 °C

Molecule: CC(C)(C)C(=O)COc1nn(CC=C(Cl)Cl)c(-c2ccc(S(C)(=O)=O)cc2)c1-c1ccc(F)cc1 [Example 26, 1-{[1-(3,3-Dichloroallyl)-4-(4-fluorophenyl)-5-(4-(methylsulphonyl)phenyl)-1H-pyrazol-3-yl]oxy}-3,3-dimethylbutan-2-one]
- inhibition at 0.0001 µM ([1]; Homo sapiens, at 0.1 (nM), read-out: WISH percent inhibition): 64%
- melting point: 156 to 158 °C

Molecule: CCn1nc(OCC(=O)C(C)(C)C)c(-c2ccc(F)cc2)c1-c1ccc(S(C)(=O)=O)cc1 [Example 27, 1-[(1-Ethyl-4-(4-fluorophenyl)-5-(4-(methylsulphonyl)phenyl)-1H-pyrazol-3-yl)oxy]-3,3-dimethylbutan-2-one]
- IC50 [2]: 5 nM
- inhibition at 100 µM [3, 5]: 0%
- melting point: 144 to 146 °C

Molecule: CCn1nc(OCC(=O)C(C)(C)C)c(-c2ccc(F)cc2)c1-c1ccc(S(N)(=O)=O)cc1 [Example 29, 1-[(1-Ethyl-4-(4-fluorophenyl)-5-(4-(aminosulphonyl)phenyl)-1H-pyrazol-3-yl)oxy]-3,3-dimethylbutan-2-one]
- inhibition at 0.1 µM [2, 4]: 55%
- inhibition at 100 µM [3, 5]: 54%
- melting point: 196 to 198 °C

Molecule: CCC(=O)COc1nn(CC(=O)CC)c(-c2ccc(S(C)(=O)=O)cc2)c1-c1ccc(F)cc1 [Example 34]
- WISH percent inhibition ([1]; at 1 (nM)): 62 @ 1%

Molecule: CC(C)(C)c1coc2c(-c3ccc(F)cc3)c(-c3ccc(S(N)(=O)=O)cc3)nn12 [Example 55]
- r-hu COX2 percent inhibition ([2]; at 100 nM): 88 @ 100%
- r-hu COX1 percent inhibition ([3]; at 10 μM): 99 @ 10%

Molecule: CCc1coc2c(-c3ccc(S(C)(=O)=O)cc3)c(-c3ccc(F)cc3)nn12 [Example 76, 6-(4-Fluorophenyl)-7-(4-(methylsulphonyl)phenyl)-3-ethylpyrazolo[5,1-b][1,3]oxazole]
- melting point: 205 to 208 °C

Molecule: CCC(=O)COc1nn(CC(=O)CC)c(-c2ccc(F)cc2)c1-c1ccc(S(C)(=O)=O)cc1 [Example 77, 1-[5-(4-Fluorophenyl)-4-(4-(methylsulphonyl)phenyl)-3-(2-oxobutoxy)-1H-pyrazol-1-yl]butan-2-one]
- melting point: 56 to 58 °C

Molecule: CCn1nc(OCC(=O)C(C)(C)C)c(-c2ccc(S(C)(=O)=O)cc2)c1-c1ccc(F)cc1 [Example 78, 1-[(1-Ethyl-5-(4-fluorophenyl)-4-(4-(methylsulphonyl)phenyl)-1H-pyrazol-3-yl)oxy]-3,3-dimethylbutan-2-one]
- melting point: 63 to 66 °C
